Measured values taken from patent US7517874B2 (priority 2007, dated 2009).

Molecular target: human CB1 receptor (hCB1) (Homo sapiens, UniProt P21554)
Assay: cell-based
Assay type: cell-based
Settings: not given
Protocol: The ability of compounds to act as agonists or inverse agonists at human CB2 and CB1 receptors (hCB2, hCB1, respectively) and at the rat CB2 receptor (rCB2) was determined by measuring changes in intracellular cAMP levels. Chinese Hamster Ovary (CHO-K1) cell lines stably expressing hCB2 (Genebank: X74328) or hCB1 (Genebank: X54937) were purchased from Euroscreen (Gosselies, Belgium). The rat CB2 receptor was expressed from genomic DNA (provided by M. Abood, California Pacific Medical Center) in CHO-K1 cells from expression plasmid vector, pcDNA3.1.
Cell lines were grown in suspension in EX-CELL 302 CHO Serum-free medium (Sigma, cat #14324C) supplemented with 1% Fetal Bovine Serum, glutamine and non-essential amino-acids under 0.4 mg/mL G418 selection.
Receptor mediated responses were determined by measuring changes in intracellular cAMP using LANCE cAMP detection kit (cat #AD0264, Perkin Elmer, Wellesley, Mass.) based on time-resolved fluorescence resonance energy transfer (TR-FRET). Changes in cAMP were determined in cells pre-incubated with IBMX (isobutyl methylxanthine) and prestimulated with NKH-477 (a water soluble forskolin derivative, cat #1603, Tocris, Ellisville, Mo.) to increase basal cAMP levels as detailed below.
On the day of the experiment, cells were spun at low speed for 5 min at room temperature. The supernatant was removed and cells were resuspended in stimulation buffer (Hanks Buffered Salt Solution/5 mM HEPES, containing 0.5 mM IBMX (cat #17018, Sigma) and 0.02% BSA (Perkin-Elmer, cat #CR84-100)). Cell clumps were removed by filtering through cell strainer 40 μm (BD Falcon, Discovery Labware, Bedford, Mass.) and diluted to 2×10^5 cells/mL. Antibody supplied with the LANCE cAMP immunoassay kit was then added according to the manufacturer's instructions. An aliquot of cells was taken for un-induced controls. To the remaining cells was added NKH-477 (a water soluble forskolin derivative, Tocris cat #1603) to a final concentration of 2-8 μM. Cells were then incubated for 30 min at room temperature prior to adding to Proxiplates containing test compounds (final DMSO concentration was less than 0.5%) with a Multidrop bulk dispenser, followed by a sixty minute incubation at room temperature. The response was stopped by addition of the detection mix supplied with the LANCE kit. The reagents were allowed to equilibrate for three hours prior to reading on an Envision multi-mode detector (Perkin-Elmer). TR-FRET was measured using a 330-380 nm excitation filter, a 665 nm emission filter, dichroic mirror 380 nm and Z=1 mm. Cyclic AMP concentrations in each well were back-calculated from a cAMP standard curve run concurrently during each assay. Each plate contained 16 wells of forskolin stimulated cells and 16 wells of forskolin plus CP55,940-treated cells. Cells were treated with 1 μM CP55,940 (Tocris cat. #0949). Concentrations of cAMP were expressed as a percent of the difference of these two groups of wells. Concentration-response data including EC50 (the concentration of compound producing 50% of the maximal response) and intrinsic activity (the percent maximal activation compared to full activation by CP55,940) were determined using a four-parameter non-linear regression algorithm (Xlfit equation 251, IDBS).

Sequence of human CB1 receptor (hCB1) (P21554 whole entry): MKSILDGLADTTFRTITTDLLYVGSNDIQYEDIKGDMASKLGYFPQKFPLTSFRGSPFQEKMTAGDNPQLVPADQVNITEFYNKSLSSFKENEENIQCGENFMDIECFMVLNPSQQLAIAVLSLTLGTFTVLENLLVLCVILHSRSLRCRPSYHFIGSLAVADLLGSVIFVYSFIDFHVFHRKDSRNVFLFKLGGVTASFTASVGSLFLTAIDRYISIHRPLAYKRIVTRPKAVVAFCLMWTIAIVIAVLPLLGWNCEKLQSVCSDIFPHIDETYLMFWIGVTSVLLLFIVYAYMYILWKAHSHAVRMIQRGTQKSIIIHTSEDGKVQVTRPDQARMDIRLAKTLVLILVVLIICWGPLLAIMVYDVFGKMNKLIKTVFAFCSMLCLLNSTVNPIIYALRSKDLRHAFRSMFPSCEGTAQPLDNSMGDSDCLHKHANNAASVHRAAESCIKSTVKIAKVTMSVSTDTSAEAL

SMILES | EC50 [nM]
CNC(=O)[C@@H](NC(=O)c1nc(-c2csc3ccccc23)n2c1CNCC2)C(C)(C)C [Compound 20, (S)-3-(benzo[b]thiophen-3-yl)-N-(3,3-dimethyl-1-(methylamino)-1-oxobutan-2-yl)-5,6,7,8-tetrahydroimidazo[1,5-a]pyrazine-1-carboxamide] | > 10000
CNC(=O)[C@@H](NC(=O)c1nc(-c2ccsc2)n2c1CN(C)CC2)C(C)(C)C [Compound 73, (S)-N-(3,3-dimethyl-1-(methylamino)-1-oxobutan-2-yl)-7-methyl-3-(thiophen-3-yl)-5,6,7,8-tetrahydroimidazo[1,5-a]pyrazine-1-carboxamide] | > 10000
CNC(=O)[C@@H](NC(=O)c1nc(-c2ccsc2)n2c1CN(CC1CC1)CC2)C(C)(C)C [Compound 74, (S)-7-(cyclopropylmethyl)-N-(3,3-dimethyl-1-(methylamino)-1-oxobutan-2-yl)-3-(thiophen-3-yl)-5,6,7,8-tetrahydroimidazo[1,5-a]pyrazine-1-carboxamide] | > 10000
CNC(=O)[C@@H](NC(=O)c1nc(-c2cscc2C)n2c1CN(C)CC2)C(C)(C)C [Compound 81, (S)-N-(3,3-dimethyl-1-(methylamino)-1-oxobutan-2-yl)-7-methyl-3-(4-methylthiophen-3-yl)-5,6,7,8-tetrahydroimidazo[1,5-a]pyrazine-1-carboxamide] | > 10000
CC(C)(C)[C@@H](CO)NC(=O)c1nc(-c2ccccc2)n2c1CN(CC1CC1)CC2 [Compound 84, (S)-7-(cyclopropylmethyl)-N-(1-hydroxy-3,3-dimethylbutan-2-yl)-3-phenyl-5,6,7,8-tetrahydroimidazo[1,5-a]pyrazine-1-carboxamide] | > 10000
CNC(=O)[C@@H](NC(=O)c1nc(-c2ccccc2)n2c1CN(S(=O)(=O)c1ccc(C(F)(F)F)cc1)CC2)C(C)(C)C [Compound 107, (S)-N-(3,3-dimethyl-1-(methylamino)-1-oxobutan-2-yl)-3-phenyl-7-(4-(trifluoromethyl)phenylsulfonyl)-5,6,7,8-tetrahydroimidazo[1,5-a]pyrazine-1-carboxamide] | > 10000
CNC(=O)[C@@H](NC(=O)c1nc(-c2ccccc2)n2c1CN(S(=O)(=O)c1ccc(C#N)cc1)CC2)C(C)(C)C [Compound 108, (S)-7-(4-cyanophenylsulfonyl)-N-(3,3-dimethyl-1-(methylamino)-1-oxobutan-2-yl)-3-phenyl-5,6,7,8-tetrahydroimidazo[1,5-a]pyrazine-1-carboxamide] | > 10000
CNC(=O)[C@@H](NC(=O)c1nc(-c2ccsc2)n2c1CN(S(=O)(=O)c1ccc(F)cc1)CC2)C(C)(C)C [Compound 109, (S)-N-(3,3-dimethyl-1-(methylamino)-1-oxobutan-2-yl)-7-(4-fluorophenylsulfonyl)-3-(thiophen-3-yl)-5,6,7,8-tetrahydroimidazo[1,5-a]pyrazine-1-carboxamide] | > 10000
CNC(=O)[C@@H](NC(=O)c1nc(Br)n2c1CN(C)CC2)C(C)(C)C [Compound 203, (S)-3-bromo-N-(3,3-dimethyl-1-(methylamino)-1-oxobutan-2-yl)-7-methyl-5,6,7,8-tetrahydroimidazo[1,5-a]pyrazine-1-carboxamide] | > 10000
CNC(=O)[C@@H](NC(=O)c1nc(-c2ccccc2)n2c1C[N+](C)(C)CC2)C(C)(C)C [Compound 311, (S)-1-(3,3-dimethyl-1-(methylamino)-1-oxobutan-2-ylcarbamoyl)-7,7-dimethyl-3-phenyl-5,6,7,8-tetrahydroimidazo[1,5-a]pyrazin-7-ium iodide] | > 10000

Same assay, conditions: groups >100 nM-10 μM and >10 μM; cAMP, CHO-K1 hCB1; read-out: EC50 HCB1

SMILES | EC50 [nM]
CNC(=O)[C@H](C)NC(=O)c1nc(-c2ccccc2)n2c1CN(C)CC2 [Compound 78, (S)-7-methyl-N-(1-(methylamino)-1-oxopropan-2-yl)-3-phenyl-5,6,7,8-tetrahydroimidazo[1,5-a]pyrazine-1-carboxamide] | > 10000
CC(C)(CO)CNC(=O)c1nc(-c2ccccc2)n2c1CN(CC1CC1)CC2 [Compound 83, 7-(cyclopropylmethyl)-N-(3-hydroxy-2,2-dimethylpropyl)-3-phenyl-5,6,7,8-tetrahydroimidazo[1,5-a]pyrazine-1-carboxamide] | > 10000
